Literature values in patent US20230167121A1, “SUBSTITUTED {1,2,4,} TRIAZOLO{1,5-A} PYRIMIDINE COMPOUNDS AND USE IN STABILIZING MICROTUBULES” (THE TRUSTEES OF THE UNIVERSITY OF PENNSYLVANIA, priority 2020, published 2023).

Tested on: MTs
Settings: cited from earlier work

CO[C@H]1C[C@H]2CC[C@@H](C1)N2c1c(-c2c(F)cc(F)cc2F)c(Cl)nc2ncnn12 [Compound 2]
binding to MTs / unpolymerized tubulin heterodimers: binds exclusively to MTs and not to unpolymerized tubulin heterodimers
